Where two headings read alike, the source gives them in different places.
Assays:
Type in all cases: in vivo
Diabrotica balteata = Diabrotica balteata spray test; settings: 168 h, read-out: efficacy (wheat plant growth); for pest or weed control at 500 g/ha: 500 g/ha (=160 μg/cavity)
Protocol: Diabrotica balteata—Spray Test Solvent: 78 parts by weight of acetone • • 1.5 parts by weight of dimethylformamide Emulsifier: alkylaryl polyglycol ether
(§1) To produce a suitable active compound formulation, 1 part by weight of active compound is dissolved using the stated parts by weight of solvent and made up with water containing an emulsifier concentration of 1000 ppm until the desired concentration is attained. To produce further test concentrations, the formulation is diluted with emulsifier-containing water.
Pre-swollen wheat grains (Triticum aestivum) are incubated in a multiwell plate filled with agar and a little water for one day (5 seed grains per cavity). The germinated wheat grains are sprayed with an active compound formulation of the desired concentration. Subsequently, each cavity is infected with 10-20 beetle larvae of Diabrotica balteata.
After 7 days, the efficacy in % is determined. 100% means that all wheat plants have grown as in the untreated, uninfected control; 0% means that no wheat plant has grown.

Spodoptera frugiperda = Spodoptera frugiperda spray test; settings: foliar, 168 h, maize leaf discs, after 7 days, read-out: efficacy (caterpillars killed)
Protocol: Spodoptera frugiperda—Spray Test Solvent: 78.0 parts by weight of acetone • • 1.5 parts by weight of dimethylformamide Emulsifier: alkylaryl polyglycol ether
as §1
Leaf discs of maize (Zea mays) are sprayed with an active compound formulation of the desired concentration and, after drying, populated with caterpillars of the fall armyworm (Spodoptera frugiperda).
After 7 days, the efficacy in % is determined. 100% means that all the caterpillars have been killed; 0% means that no caterpillar has been killed.

Meloidogyne incognita = Meloidogyne incognita test; settings: 336 h, lettuce, after 14 days, read-out: nematicidal efficacy (formation of galls)
Protocol: Meloidogyne incognita Test Solvent: 125.0 parts by weight of acetone
To produce a suitable active compound formulation, 1 part by weight of active compound is mixed with the stated amount of solvent and the concentrate is diluted to the desired concentration with water.
Vessels are filled with sand, active compound solution, an egg/larvae suspension of the southern root-knot nematode (Meloidogyne incognita) and lettuce seeds. The lettuce seeds germinate and the plants develop. The galls develop on the roots.
After 14 days, the nematicidal efficacy in % is determined by the formation of galls. 100% means that no galls were found; 0% means that the number of galls on the treated plants corresponds to the untreated control.

Ctenocephalides felis = Ctenocephalides felis oral test; settings: 48 h, 100 ppm in citrated cattle blood, adult cat fleas, after 2 days, read-out: efficacy (kill)
Protocol: Ctenocephalides felis—Oral Test
Solvent: Dimethyl Sulfoxide
To produce a suitable active compound formulation, 10 mg of active compound are mixed with 0.5 ml of dimethyl sulfoxide. Dilution with citrated cattle blood gives the desired concentration.
About 20 unfed adult cat fleas (Ctenocephalides felis) are placed into a chamber which is closed at the top and bottom with gauze. A metal cylinder whose bottom end is closed with parafilm is placed onto the chamber. The cylinder contains the blood/active compound formulation, which can be imbibed by the fleas through the parafilm membrane.
After 2 days, the kill in % is determined. 100% means that all of the fleas have been killed; 0% means that none of the fleas have been killed.

Phaedon cochleariae = Phaedon cochleariae spray test; settings: foliar, 168 h, Chinese cabbage leaf discs, after 7 days, read-out: efficacy (beetle larvae killed)
Protocol: Phaedon cochleariae—Spray Test Solvent: 78.0 parts by weight of acetone • • 1.5 parts by weight of dimethylformamide Emulsifier: alkylaryl polyglycol ether
as §1
Discs of Chinese cabbage leaves (Brassica pekinensis) are sprayed with an active compound formulation of the desired concentration and, after drying, populated with larvae of the mustard beetle (Phaedon cochleariae).
After 7 days, the efficacy in % is determined. 100% means that all the beetle larvae have been killed; 0% means that no beetle larvae have been killed.

[1] = 100 g/ha (=32 μg/cavity), beetle larvae on wheat, after 7 days
[2] = beetle larvae on wheat, after 7 days

SMILES	pest or weed control at 100 g/ha (Diabrotica balteata; [1]) [%]	pest or weed control at 100 g/ha (Spodoptera frugiperda) [%]	also measured
CNc1nc(-c2ccc(C=NNC(=S)Nc3ccccc3C(C)C)cc2Cl)nn1-c1ccc(OC(F)(F)F)cc1 [Compound I-108]	100	100	pest or weed control at 20 ppm (Meloidogyne incognita): 90%
CNc1nc(-c2cc(F)c(C=NN=C3SCC(=O)N3c3ccccc3C(C)C)cc2F)nn1-c1ccc(OC(F)(F)F)cc1 [Compound I-111]	100	100	pest or weed control at 20 ppm (Meloidogyne incognita): 100%
CNc1nc(-c2ccc(C=NN=C3SCC(=O)N3c3ccccc3C(C)C)c(F)c2)nn1-c1ccc(OC(F)(F)F)cc1 [Compound I-105]	100	100	pest or weed control at 20 ppm (Meloidogyne incognita): 90%
CC(C)Nc1nc(-c2ccc(C=NNC(=S)Nc3ccccc3C(C)C)cc2)nn1-c1ccc(OC(F)(F)F)cc1 [Compound I-052]	100	100	pest or weed control at 20 ppm (Meloidogyne incognita): 100%
CC(=O)Nc1nc(-c2ccc(C(C)=NNC(=S)Nc3ccccc3C)cc2)nn1-c1ccc(OC(F)(F)F)cc1 [Compound I-014]	–	100	pest or weed control at 100 ppm (Ctenocephalides felis): 80%; pest or weed control at 100 g/ha (Phaedon cochleariae): 100%
CO[C@@H]1[C@@H](OC)[C@H](C)O[C@@H](OC(=O)Nc2ccc(-c3nc(NC(=O)C4CC4)n(-c4ccc(OC(F)(F)C(F)(F)F)cc4)n3)cc2)[C@@H]1OC [Compound I-004]	–	–	pest or weed control at 500 g/ha (Spodoptera frugiperda): 83%; pest or weed control at 100 g/ha (Phaedon cochleariae): 100%; pest or weed control at 500 g/ha (Phaedon cochleariae; 500 g/ha): 100%
CCC(=O)Nc1nc(-c2ccc(C(C)=NNC(=S)Nc3ccccc3C(C)C)cc2)nn1-c1ccc(OC(F)(F)F)cc1 [Compound I-016]	–	100	pest or weed control at 100 ppm (Ctenocephalides felis): 95%; pest or weed control at 100 g/ha (Phaedon cochleariae): 100%
CCNc1nc(-c2ccc(C=NN=C3SCC(=O)N3c3ccccc3C(C)C)cc2)nn1-c1ccc(OC(F)(F)F)cc1 [Compound I-047]	–	–	pest or weed control at 20 ppm (Meloidogyne incognita): 90%
CC(C)Nc1nc(-c2ccc(C=NN=C3SCC(=O)N3c3ccccc3C(C)C)cc2)nn1-c1ccc(OC(F)(F)F)cc1 [Compound I-048]	–	–	pest or weed control at 20 ppm (Meloidogyne incognita): 90%
CC(C)c1ccccc1NC(=S)NN=Cc1ccc(-c2nc(NC(=O)C3CC3)n(-c3ccc(OC(F)(F)F)cc3)n2)cc1 [Compound I-013]	–	100	pest or weed control at 100 ppm (Ctenocephalides felis): 100%; pest or weed control at 100 g/ha (Phaedon cochleariae): 100%
CNc1nc(-c2ccc(C=NN3CCCSC3=Nc3ccccc3C(C)C)cc2)nn1-c1ccc(OC(F)(F)C(F)(F)F)cc1 [Compound I-125, 3-{4-[({2-[(2-isopropylphenyl)imino]-1,3-thiazinan-3-yl}imino)methyl]phenyl}-N-methyl-1-[4-(pentafluoroethoxy)phenyl]-1H-1,2,4-triazol-5-amine]	100	100	–
CCOC(CNc1nc(-c2ccc(C=NN=C3SCC(=O)N3c3ccccc3C(C)C)cc2)nn1-c1ccc(OC(F)(F)F)cc1)OCC [Compound I-085]	80	100	–
CNc1nc(-c2ccc(C=NN=c3scc(C)n3-c3ccccc3C(C)C)cc2)nn1-c1ccc(OC(F)(F)C(F)(F)F)cc1 [Compound I-127]	100	100	–
CC(C)c1ccccc1NC(=S)NN=Cc1ccc(-c2nc(NCCS(C)(=O)=O)n(-c3ccc(OC(F)(F)F)cc3)n2)cc1 [Compound I-093]	100	100	–
CC(=O)Nc1nc(-c2ccc(C=NNC(=S)Nc3ccccc3C)cc2)nn1-c1ccc(OC(F)(F)F)cc1 [Compound I-010]	–	100	pest or weed control at 100 ppm (Ctenocephalides felis): 100%; pest or weed control at 100 g/ha (Phaedon cochleariae): 100%
CNc1nc(-c2ccc(C=NN=C3SCC(=O)N3c3ccccc3C(C)C)cc2)nn1-c1ccc(OC(F)(F)C(F)(F)F)cc1 [Compound I-064]	100	100	pest or weed control at 500 g/ha (Diabrotica balteata; [2]): 100%
CC(=O)Nc1cc(-c2ccc(C=NN=C3SCC(=O)N3c3ccccc3C(C)C)cc2)nn1-c1ccc(OC(F)(F)F)cc1 [Compound I-039]	80	100	–
CCC(=O)Nc1nc(-c2ccc(NC(=O)N=C3SCC(=O)N3c3ccccc3C(C)C)cc2)nn1-c1ccc(OC(F)(F)F)cc1 [Compound I-036]	80	100	pest or weed control at 500 g/ha (Diabrotica balteata; [2]): 100%
CCC(=O)Nc1nc(-c2ccc(C=NNC(=S)Nc3ccccc3C(C)C)cc2)nn1-c1ccc(OC(F)(F)F)cc1 [Compound I-012]	–	100	pest or weed control at 100 g/ha (Phaedon cochleariae): 100%
CC(=O)Nc1nc(-c2ccc(C(C)=NNC(=S)Nc3c(C)cccc3C)cc2)nn1-c1ccc(OC(F)(F)F)cc1 [Compound I-015]	–	100	pest or weed control at 100 ppm (Ctenocephalides felis): 100%; pest or weed control at 100 g/ha (Phaedon cochleariae): 83%
CNc1nc(-c2ccc(C=NN=C3SCCCN3c3ccccc3C(C)C)cc2)nn1-c1ccc(OC(F)(F)C(F)(F)F)cc1 [Compound I-126, 3-[4-({[3-(2-isopropylphenyl)-1,3-thiazinan-2-yliden]hydrazono}methyl)phenyl]-N-methyl-1-[4-(pentafluoroethoxy)phenyl]-1H-1,2,4-triazol-5-amine]	100	100	–
CC(=O)Nc1nc(-c2ccc(NC(=O)N=C3SCC(=O)N3c3ccccc3C(C)C)cc2)nn1-c1ccc(OC(F)(F)F)cc1 [Compound I-034]	100	100	pest or weed control at 500 g/ha (Diabrotica balteata; [2]): 100%
CNc1nc(-c2ccc(C=NN=C3SCCC(=O)N3c3ccccc3C(C)C)cc2)nn1-c1ccc(OC(F)(F)F)cc1 [Compound I-113]	100	100	–
CC(C)c1ccccc1N1C(=O)CSC1=NC(=O)Nc1ccc(-c2nc(NC3CCOC3)n(-c3ccc(OC(F)(F)F)cc3)n2)cc1 (centres unmarked) [Compound I-045]	100	100	pest or weed control at 500 g/ha (Diabrotica balteata; [2]): 100%; pest or weed control at 500 g/ha (Spodoptera frugiperda): 100%
CNc1nc(-c2ccc(C=NN=C3SC(C)C(=O)N3c3ccccc3C(C)C)cc2)nn1-c1ccc(OC(F)(F)F)cc1 (centres unmarked) [Compound I-098]	100	100	–
CC(=O)Nc1nc(-c2ccc(C=NNC(=S)Nc3ccccc3C(C)C)cc2)nn1-c1ccc(OC(F)(F)C(F)(F)F)cc1 [Compound I-096]	100	100	–
CC(=O)Nc1cc(-c2ccc(C=NNC(=S)Nc3ccccc3C(C)C)cc2)nn1-c1ccc(OC(F)(F)F)cc1 [Compound I-040]	80	100	pest or weed control at 500 g/ha (Diabrotica balteata; [2]): 100%
CNc1nc(-c2ccc(C=NNC(=S)Nc3ccccc3C(C)C)cc2C)nn1-c1ccc(OC(F)(F)F)cc1 [Compound I-119]	100	100	–
CNc1nc(-c2c(F)cc(C=NNC(=S)Nc3ccccc3C(C)C)cc2F)nn1-c1ccc(OC(F)(F)F)cc1 [Compound I-120]	100	100	–
CCOC(=O)Nc1nc(-c2ccc(NC(=O)N=C3SCC(=O)N3c3ccccc3C(C)C)cc2)nn1-c1ccc(OC(F)(F)F)cc1 [Compound I-116]	–	100	pest or weed control at 100 g/ha (Diabrotica balteata; in Triticum aestivum): 100%

Reference: patent US20220289691A1, “5-AMINO-SUBSTITUTED PYRAZOLES AND TRIAZOLES AS PEST CONTROL AGENTS” (Bayer Aktiengesellschaft, priority 2019, published 2022)
